According to ChEMBL document CHEMBL4651402, “Screening of ~5500 FDA-approved drugs and clinical candidates for anti-SARS-CoV-2 activity” (2021):

Test system: SARS-CoV-2
Assay: microbe, parasite or virus in culture
Details: Severe acute respiratory syndrome coronavirus 2, Vero C1008, 48 h

C[C@]12CCC(=O)C=C1CC[C@@H]1[C@@H]2CC[C@@]2(C)[C@H]1CC[C@]2(O)C(=O)CO [CORTODOXONE] gave an IC50 greater than 20 µM and an IC50 (read-out: pIC50 (converted)) greater than 20 µM.
Compound COc1c2c(cc3c1OCO3)CC[N+](C)=C2 [COTARNINE] has an IC50 greater than 20 µM and an IC50 (read-out: pIC50 (converted)) greater than 20 µM.
For CN1C(=O)CC[C@H]1c1cccnc1 [COTININE], the IC50 was greater than 20 µM and the IC50 (read-out: pIC50 (converted)) was greater than 20 µM.
CCOP(=S)(OCC)Oc1ccc2c(C)c(Cl)c(=O)oc2c1 [COUMAPHOS] gave an IC50 greater than 20 µM and an IC50 (read-out: pIC50 (converted)) greater than 20 µM.
In the case of O=c1ccc2ccccc2o1 [COUMARIN], the IC50 is reported as greater than 20 µM and the IC50 (read-out: pIC50 (converted)) is reported as greater than 20 µM.
CC(=O)Nc1ccc(C(=O)NC(C)(C)C)cc1 [CP1-1189] showed an IC50 greater than 20 µM and an IC50 (read-out: pIC50 (converted)) greater than 20 µM.
Work on COc1ccccc1CN[C@H]1CCCN[C@H]1c1ccccc1 [CP-99994] yielded an IC50 greater than 20 µM and an IC50 (read-out: pIC50 (converted)) greater than 20 µM.
For COCC(=O)NC/C=C/c1ccc2ncnc(Nc3ccc(Oc4ccc(C)nc4)c(C)c3)c2c1 [CP-724714], the IC50 was greater than 20 µM and the IC50 (read-out: pIC50 (converted)) was greater than 20 µM.
CCc1nc2c(N)nc3ccccc3c2n1CCCCNS(C)(=O)=O [CPG-52852] was tested, and the IC50 was greater than 20 µM and the IC50 (read-out: pIC50 (converted)) was greater than 20 µM.
Compound O=C(O)CCCCC(CCSCc1ccccc1)SCc1ccccc1 (centres undefined) [CPI 613] has an IC50 greater than 20 µM and an IC50 (read-out: pIC50 (converted)) greater than 20 µM.
Work on COc1cc(C)[nH]c(=O)c1CNC(=O)c1c(C)n([C@H](C)C2CCN(CC(F)(F)F)CC2)c2ccccc12 [CPI-1205] yielded an IC50 greater than 20 µM and an IC50 (read-out: pIC50 (converted)) greater than 20 µM.
For CNC(=O)c1nnc(NC(=O)C2CC2)cc1Nc1cccc(-c2ncn(C)n2)c1OC [CRAVACITINIB], the IC50 was greater than 20 µM and the IC50 (read-out: pIC50 (converted)) was greater than 20 µM.
CN(CC(=O)O)C(=N)N [CREATINE] gave an IC50 greater than 20 µM and an IC50 (read-out: pIC50 (converted)) greater than 20 µM.
In the case of CN1CC(=O)NC1=N [CREATININE], the IC50 is reported as greater than 20 µM and the IC50 (read-out: pIC50 (converted)) is reported as greater than 20 µM.
With CC1(COc2ccc3c(c2)ncn3-c2ccc3cccc(N4CCC(N)CC4)c3n2)COC1 [CRENOLANIB] the IC50 was greater than 20 µM and the IC50 (read-out: pIC50 (converted)) was greater than 20 µM.
In the case of C[C@@H](Oc1cc(-c2cnn(C3CCNCC3)c2)cnc1N)c1c(Cl)ccc(F)c1Cl [CRIZOTINIB], the IC50 is reported as greater than 20 µM and the IC50 (read-out: pIC50 (converted)) is reported as greater than 20 µM.
O=C(O)c1cc(=O)c2c(OCC(O)COc3cccc4oc(C(=O)O)cc(=O)c34)cccc2o1 [CROMOLYN] showed an IC50 greater than 20 µM and an IC50 (read-out: pIC50 (converted)) greater than 20 µM.
With CC(C)c1cnn2c(NCc3ccccc3)cc(NC[C@H]3CCNC[C@@H]3O)nc12 [CT-7001] the IC50 was greater than 20 µM and the IC50 (read-out: pIC50 (converted)) was greater than 20 µM.
Work on CN(C)c1cc2c(cc1Sc1nc3c(N)nccc3n1CCNCC(C)(C)C)OCO2 [CUDC-305] yielded an IC50 greater than 20 µM and an IC50 (read-out: pIC50 (converted)) greater than 20 µM.
Compound O=C(c1ccc2nccnc2c1)N1CCCCC1 [CX516] has an IC50 greater than 20 µM and an IC50 (read-out: pIC50 (converted)) greater than 20 µM.
Compound O=C(c1ccc2nonc2c1)N1CCOCC1 [CX-717] has an IC50 greater than 20 µM and an IC50 (read-out: pIC50 (converted)) greater than 20 µM.
N#CCC(=O)NN [CYACETACIDE] showed an IC50 greater than 20 µM and an IC50 (read-out: pIC50 (converted)) greater than 20 µM.
Oc1cc(O)c2cc(O)c(-c3ccc(O)c(O)c3)[o+]c2c1 [CYANIDIN] showed an IC50 greater than 20 µM and an IC50 (read-out: pIC50 (converted)) greater than 20 µM.
In the case of CC1(C)S[C@@H]2[C@H](NC(=O)C3(N)CCCCC3)C(=O)N2[C@H]1C(=O)O [CYCLACILLIN], the IC50 is reported as greater than 20 µM and the IC50 (read-out: pIC50 (converted)) is reported as greater than 20 µM.
O=S(=O)(O)NC1CCCCC1 [CYCLAMIC ACID] was tested, and the IC50 was greater than 20 µM and the IC50 (read-out: pIC50 (converted)) was greater than 20 µM.
Compound CC1CC(OC(=O)C(O)c2ccccc2)CC(C)(C)C1 (centres undefined) [CYCLANDELATE] has an IC50 greater than 20 µM and an IC50 (read-out: pIC50 (converted)) greater than 20 µM.
Work on CN(C)C1CCc2[nH]c3ccccc3c2C1 (centres undefined) [CYCLINDOLE] yielded an IC50 greater than 20 µM and an IC50 (read-out: pIC50 (converted)) greater than 20 µM.
CN1CCN(C(c2ccccc2)c2ccccc2)CC1 [CYCLIZINE] gave an IC50 greater than 20 µM and an IC50 (read-out: pIC50 (converted)) greater than 20 µM.
Work on COC(=O)Nc1nc2ccc(C(=O)C3CC3)cc2[nH]1 [CYCLOBENDAZOLE] yielded an IC50 greater than 20 µM and an IC50 (read-out: pIC50 (converted)) greater than 20 µM.
In the case of CN(C)CCC=C1c2ccccc2C=Cc2ccccc21 [CYCLOBENZAPRINE], the IC50 is reported as greater than 20 µM and the IC50 (read-out: pIC50 (converted)) is reported as greater than 20 µM.
CC(=O)Oc1ccc(C(=C2CCCCC2)c2ccc(OC(C)=O)cc2)cc1 [CYCLOFENIL] showed an IC50 greater than 20 µM and an IC50 (read-out: pIC50 (converted)) greater than 20 µM.
With CC1(C)N=C(N)N=C(N)N1c1ccc(Cl)cc1 [CYCLOGUANIL] the IC50 was greater than 20 µM and the IC50 (read-out: pIC50 (converted)) was greater than 20 µM.
NC1CCCCC1 [CYCLOHEXYLAMINE] showed an IC50 greater than 20 µM and an IC50 (read-out: pIC50 (converted)) greater than 20 µM.
With NC1(C(=O)O)CCCC1 [CYCLOLEUCINE] the IC50 was greater than 20 µM and the IC50 (read-out: pIC50 (converted)) was greater than 20 µM.
Compound CNC(C)CC1CCCC1 (centres undefined) [CYCLOPENTAMINE] has an IC50 greater than 20 µM and an IC50 (read-out: pIC50 (converted)) greater than 20 µM.
Work on NS(=O)(=O)c1cc2c(cc1Cl)NC(CC1CCCC1)NS2(=O)=O (centres undefined) [CYCLOPENTHIAZIDE] yielded an IC50 greater than 20 µM and an IC50 (read-out: pIC50 (converted)) greater than 20 µM.
CN(C)CCOC(=O)C(c1ccccc1)C1(O)CCCC1 (centres undefined) [CYCLOPENTOLATE] showed an IC50 greater than 20 µM and an IC50 (read-out: pIC50 (converted)) greater than 20 µM.
For FC(F)(F)c1ccc2c(c1)N(CCCN1CCN(C3CC3)CC1)c1ccccc1S2 [CYCLOPHENAZINE], the IC50 was greater than 20 µM and the IC50 (read-out: pIC50 (converted)) was greater than 20 µM.
For O=P1(N(CCCl)CCCl)NCCCO1 (centres undefined) [CYCLOPHOSPHAMIDE ANHYDROUS], the IC50 was greater than 20 µM and the IC50 (read-out: pIC50 (converted)) was greater than 20 µM.
With N[C@@H]1CONC1=O [CYCLOSERINE] the IC50 was greater than 20 µM and the IC50 (read-out: pIC50 (converted)) was greater than 20 µM.
NS(=O)(=O)c1cc2c(cc1Cl)NC(C1CC3C=CC1C3)NS2(=O)=O (centres undefined) [CYCLOTHIAZIDE] gave an IC50 greater than 20 µM and an IC50 (read-out: pIC50 (converted)) greater than 20 µM.
Work on COc1cc(/C=C2\CCC/C(=C\c3ccc(O)c(OC)c3)C2=O)ccc1O [CYCLOVALONE] yielded an IC50 greater than 20 µM and an IC50 (read-out: pIC50 (converted)) greater than 20 µM.
OC(CCN1CCCCC1)(c1ccccc1)C1CCCC1 (centres undefined) [CYCRIMINE] was tested, and the IC50 was greater than 20 µM and the IC50 (read-out: pIC50 (converted)) was greater than 20 µM.
[O-][N+]1=C(c2ccccc2)c2cc(Cl)ccc2N=C(NCC2CC2)C1 [CYPRAZEPAM] showed an IC50 greater than 20 µM and an IC50 (read-out: pIC50 (converted)) greater than 20 µM.
CN1CCC(=C2c3ccccc3C=Cc3ccccc32)CC1 [CYPROHEPTADINE] gave an IC50 greater than 20 µM and an IC50 (read-out: pIC50 (converted)) greater than 20 µM.
CC(=O)O[C@]1(C(C)=O)CC[C@H]2[C@@H]3C=C(Cl)C4=CC(=O)[C@@H]5C[C@@H]5[C@]4(C)[C@H]3CC[C@@]21C [CYPROTERONE ACETATE] showed an IC50 greater than 20 µM and an IC50 (read-out: pIC50 (converted)) greater than 20 µM.
Work on CC(=O)[C@@]1(O)CC[C@H]2[C@@H]3C=C(Cl)C4=CC(=O)[C@@H]5C[C@@H]5[C@]4(C)[C@H]3CC[C@@]21C [CYPROTERONE] yielded an IC50 greater than 20 µM and an IC50 (read-out: pIC50 (converted)) greater than 20 µM.
Nc1nc(N)nc(NC2CC2)n1 [CYROMAZINE] showed an IC50 greater than 20 µM and an IC50 (read-out: pIC50 (converted)) greater than 20 µM.
Compound NCCS [CYSTEAMINE] has an IC50 greater than 10 µM and an IC50 (read-out: pIC50 (converted)) greater than 10 µM.
N[C@@H](CS)C(=O)O [CYSTEINE] gave an IC50 greater than 20 µM and an IC50 (read-out: pIC50 (converted)) greater than 20 µM.
In the case of O=c1cccc2n1C[C@@H]1CNC[C@H]2C1 [CYTISINICLINE], the IC50 is reported as greater than 20 µM and the IC50 (read-out: pIC50 (converted)) is reported as greater than 20 µM.
Work on N[C@H](Cc1c[nH]cn1)C(=O)O [D-HISTIDINE] yielded an IC50 greater than 20 µM and an IC50 (read-out: pIC50 (converted)) greater than 20 µM.
Compound CCCCCCOC(=O)NC(=N)c1ccc(NCc2nc3cc(C(=O)N(CCC(=O)OCC)c4ccccn4)ccc3n2C)cc1 [DABIGATRAN ETEXILATE] has an IC50 greater than 20 µM and an IC50 (read-out: pIC50 (converted)) greater than 20 µM.
CC(C)(C)c1nc(-c2cccc(NS(=O)(=O)c3c(F)cccc3F)c2F)c(-c2ccnc(N)n2)s1 [DABRAFENIB] was tested, and the IC50 was greater than 20 µM and the IC50 (read-out: pIC50 (converted)) was greater than 20 µM.
COc1cc2ncnc(Nc3ccc(F)c(Cl)c3)c2cc1NC(=O)/C=C/CN1CCCCC1 [DACOMITINIB ANHYDROUS] showed an IC50 greater than 20 µM and an IC50 (read-out: pIC50 (converted)) greater than 20 µM.
Work on NC(=O)c1ccn2c1CS[C@@H]2c1cccnc1 [DACOPAFANT] yielded an IC50 greater than 20 µM and an IC50 (read-out: pIC50 (converted)) greater than 20 µM.
In the case of Cn1c(=O)n(-c2ccc(C(C)(C)C#N)cc2)c2c3cc(-c4cnc5ccccc5c4)ccc3ncc21 [DACTOLISIB], the IC50 is reported as greater than 20 µM and the IC50 (read-out: pIC50 (converted)) is reported as greater than 20 µM.
